Source: patent publication US20230210831A1, “CHRONIC KIDNEY DISEASE TREATMENT OR PREVENTION METHOD” (Japan Tobacco Inc., priority 2019, published 2023)

Legend:
Assay type in all cases: cell-based
[1] = test system: Salmonella typhimurium TA100; test: Ames test (reverse mutation test), TA100
Method: (§1) The solvent used herein was dimethyl sulfoxide (DMSO, 100 µL/plate).
(§2) The mixtures were preincubated at 37° C. for 20 minutes while shaking. […] Two plates per treatment were used.

Escherichia coli WP2uvrA = test: Ames test (reverse mutation test), WP2uvrA
Method: as §1, §2

[2] = test system: Salmonella typhimurium TA98; test: Ames test (reverse mutation test), TA98
Method: as §1, §2

[3] = test system: Salmonella typhimurium TA1535; test: Ames test (reverse mutation test), TA1535
Method: as §1, §2

[4] = test system: Salmonella typhimurium TA1537; test: Ames test (reverse mutation test), TA1537
Method: as §1, §2

Cc1ccc(-n2nc(N)cc2-c2cccc(OCC(F)(F)F)c2)cc1 [Metabolite F]
Number of revertant colonies TA100 ([1]; S9 Mix +, dose 2.3 µg/plate): 553 | Number of revertant colonies TA100 ([1]; S9 Mix +, dose 6.9 µg/plate): 1417 | Number of revertant colonies TA100 ([1]; S9 Mix +, dose 21 µg/plate): 2888 | Number of revertant colonies TA100 ([1]; S9 Mix +, dose 62 µg/plate): 3713 | Number of revertant colonies TA100 ([1]; S9 Mix +, dose 185 µg/plate): 2889 | Number of revertant colonies TA100 ([1]; S9 Mix +, dose 556 µg/plate): 1288 | Number of revertant colonies TA100 ([1]; S9 Mix +, dose 1667 µg/plate): 1576 | Number of revertant colonies TA100 ([1]; S9 Mix +, dose 5000 µg/plate): 1160 | Number of revertant colonies TA100 ([1]; S9 Mix -, dose 2.3 µg/plate): 107 | Number of revertant colonies TA100 ([1]; S9 Mix -, dose 6.9 µg/plate): 104 | Number of revertant colonies TA100 ([1]; S9 Mix -, dose 21 µg/plate): 115 | Number of revertant colonies TA100 ([1]; S9 Mix -, dose 62 µg/plate): 109 | Number of revertant colonies TA100 ([1]; S9 Mix -, dose 185 µg/plate): 93 | Number of revertant colonies TA100 ([1]; S9 Mix -, dose 556 µg/plate): 62 | Number of revertant colonies TA100 ([1]; S9 Mix -, dose 1667 µg/plate): 58 | Number of revertant colonies TA100 ([1]; S9 Mix -, dose 5000 µg/plate): 40 | potential to induce reverse mutations ([1]; TA100 with S9 mix): showed potential to induce reverse mutations | Number of revertant colonies WP2uvrA (Escherichia coli WP2uvrA; S9 Mix +, dose 2.3 µg/plate): 25 | Number of revertant colonies WP2uvrA (Escherichia coli WP2uvrA; S9 Mix +, dose 6.9 µg/plate): 20 | Number of revertant colonies WP2uvrA (Escherichia coli WP2uvrA; S9 Mix +, dose 21 µg/plate): 30 | Number of revertant colonies WP2uvrA (Escherichia coli WP2uvrA; S9 Mix +, dose 62 µg/plate): 24 | Number of revertant colonies WP2uvrA (Escherichia coli WP2uvrA; S9 Mix +, dose 185 µg/plate): 20 | Number of revertant colonies WP2uvrA (Escherichia coli WP2uvrA; S9 Mix +, dose 556 µg/plate): 24 | Number of revertant colonies WP2uvrA (Escherichia coli WP2uvrA; S9 Mix +, dose 1667 µg/plate): 16 | Number of revertant colonies WP2uvrA (Escherichia coli WP2uvrA; S9 Mix +, dose 5000 µg/plate): 6 | Number of revertant colonies WP2uvrA (Escherichia coli WP2uvrA; S9 Mix -, dose 2.3 µg/plate): 24 | Number of revertant colonies WP2uvrA (Escherichia coli WP2uvrA; S9 Mix -, dose 6.9 µg/plate): 23 | Number of revertant colonies WP2uvrA (Escherichia coli WP2uvrA; S9 Mix -, dose 21 µg/plate): 26 | Number of revertant colonies WP2uvrA (Escherichia coli WP2uvrA; S9 Mix -, dose 62 µg/plate): 19 | Number of revertant colonies WP2uvrA (Escherichia coli WP2uvrA; S9 Mix -, dose 185 µg/plate): 13 | Number of revertant colonies WP2uvrA (Escherichia coli WP2uvrA; S9 Mix -, dose 556 µg/plate): 74 | Number of revertant colonies WP2uvrA (Escherichia coli WP2uvrA; S9 Mix -, dose 1667 µg/plate): 8 | Number of revertant colonies WP2uvrA (Escherichia coli WP2uvrA; S9 Mix -, dose 5000 µg/plate): 5 | potential to induce reverse mutations (Escherichia coli WP2uvrA; WP2uvrA without S9 mix): showed potential to induce reverse mutations | Number of revertant colonies TA98 ([2]; S9 Mix +, dose 2.3 µg/plate): 93 | Number of revertant colonies TA98 ([2]; S9 Mix +, dose 6.9 µg/plate): 218 | Number of revertant colonies TA98 ([2]; S9 Mix +, dose 21 µg/plate): 522 | Number of revertant colonies TA98 ([2]; S9 Mix +, dose 62 µg/plate): 484 | Number of revertant colonies TA98 ([2]; S9 Mix +, dose 185 µg/plate): 287 | Number of revertant colonies TA98 ([2]; S9 Mix +, dose 556 µg/plate): 151 | Number of revertant colonies TA98 ([2]; S9 Mix +, dose 1667 µg/plate): 61 | Number of revertant colonies TA98 ([2]; S9 Mix +, dose 5000 µg/plate): 0 | Number of revertant colonies TA98 ([2]; S9 Mix -, dose 2.3 µg/plate): 25 | Number of revertant colonies TA98 ([2]; S9 Mix -, dose 6.9 µg/plate): 32 | Number of revertant colonies TA98 ([2]; S9 Mix -, dose 21 µg/plate): 21 | Number of revertant colonies TA98 ([2]; S9 Mix -, dose 62 µg/plate): 21 | Number of revertant colonies TA98 ([2]; S9 Mix -, dose 185 µg/plate): 20 | Number of revertant colonies TA98 ([2]; S9 Mix -, dose 556 µg/plate): 19 | Number of revertant colonies TA98 ([2]; S9 Mix -, dose 1667 µg/plate): 6 | Number of revertant colonies TA98 ([2]; S9 Mix -, dose 5000 µg/plate): 0 | potential to induce reverse mutations ([2]; TA98 with S9 mix): showed potential to induce reverse mutations | Number of revertant colonies TA1535 ([3]; S9 Mix +, dose 1667 µg/plate): 0 | Number of revertant colonies TA1535 ([3]; S9 Mix -, dose 556 µg/plate): 0 | Number of revertant colonies TA1535 ([3]; S9 Mix -, dose 1667 µg/plate): 0 | Number of revertant colonies TA1537 ([4]; S9 Mix +, dose 2.3 µg/plate): 41 | Number of revertant colonies TA1537 ([4]; S9 Mix +, dose 6.9 µg/plate): 92 | Number of revertant colonies TA1537 ([4]; S9 Mix +, dose 21 µg/plate): 157 | Number of revertant colonies TA1537 ([4]; S9 Mix +, dose 62 µg/plate): 227 | Number of revertant colonies TA1537 ([4]; S9 Mix +, dose 185 µg/plate): 151 | Number of revertant colonies TA1537 ([4]; S9 Mix +, dose 556 µg/plate): 54 | Number of revertant colonies TA1537 ([4]; S9 Mix +, dose 1667 µg/plate): 39 | Number of revertant colonies TA1537 ([4]; S9 Mix +, dose 5000 µg/plate): 3 | Number of revertant colonies TA1537 ([4]; S9 Mix -, dose 2.3 µg/plate): 9 | Number of revertant colonies TA1537 ([4]; S9 Mix -, dose 6.9 µg/plate): 16 | Number of revertant colonies TA1537 ([4]; S9 Mix -, dose 21 µg/plate): 16 | Number of revertant colonies TA1537 ([4]; S9 Mix -, dose 62 µg/plate): 10 | Number of revertant colonies TA1537 ([4]; S9 Mix -, dose 185 µg/plate): 3 | Number of revertant colonies TA1537 ([4]; S9 Mix -, dose 556 µg/plate): 0 | Number of revertant colonies TA1537 ([4]; S9 Mix -, dose 1667 µg/plate): 0 | Number of revertant colonies TA1537 ([4]; S9 Mix -, dose 5000 µg/plate): 0 | potential to induce reverse mutations ([4]; TA1537 with S9 mix): showed potential to induce reverse mutations
